Patent publication US20200405699A1, “TREATING SICKLE CELL DISEASE WITH A PYRUVATE KINASE R ACTIVATING COMPOUND” (FORMA Therapeutics, Inc., priority 2018, published 2020)

Experiments:
Format in all cases: biochemical
PKR(G332S) = PKR(G332S) (Homo sapiens, UniProt P30613, G332S); assay: Luminescence Assay (Kinase Glo Plus), PKR G332S; settings: read-out: AC50 (PKRG332S)
Description: (§1) For each tested compound, the ability to activate PKR was determined using the following Luminescence Assay. The effect of phosphorylation of adenosine-5′-diphosphate (ADP) by PKR is determined by the Kinase Glo Plus Assay (Promega) in the presence or absence of FBP (D-fructose-1,6-diphosphate; BOC Sciences, CAS: 81028-91-3) as follows. Unless otherwise indicated, all reagents are purchased from Sigma-Aldrich. All reagents are prepared in buffer containing 50 mM Tris-HCl, 100 mM KCl, 5 mM MgCl2, and 0.01% Triton X100, 0.03% BSA, and 1 mM DTT. Enzyme and PEP (phosphoenolpyruvate) are added at 2× to all wells of an assay-ready plate containing serial dilutions of test compounds or DMSO vehicle. Final enzyme concentrations for PKR(wt), PKR(R510Q), and PKR(G332S) are 0.8 nM, 0.8 nM, and 10 nM respectively. Final PEP concentration is 100 μM. The Enzyme/PEP mixture is incubated with compounds for 30 minutes at RT before the assay is initiated with the addition of 2×ADP and KinaseGloPlus. Final concentration of ADP is 100 μM. […] For assays containing FBP, that reagent is added at 30 μM upon reaction initiation. Reactions are allowed to progress for 45 minutes at RT until luminescence is recorded by the BMG PHERAstar FS Multilabel Reader. The compound is tested in triplicate at concentrations ranging from 42.5 μM to 2.2 nM in 0.83% DMSO. AC50 measurements were obtained by the standard four parameter fit algorithm of ActivityBase XE Runner (max, min, slope and AC50). The AC50 value for a compound is the concentration (μM) at which the activity along the four parameter logistic curve fit is halfway between minimum and maximum activity.
(§2) As set forth in Tables 2 and 3 below and in FIG. 1, AC50 values are defined as follows: ≤0.1 μM (+++); >0.1 μM and ≤1.0 μM (++); >1.0 μM and ≤40 μM (+); >40 μM (0).

PKR-R510Q = PKR-R510Q (Homo sapiens, UniProt P30613, R510Q); assay: Luminescence Assay (Kinase Glo Plus), PKR R510Q; settings: read-out: AC50 (PKRR510Q)
Sequence of PKR-R510Q (P30613 whole entry R510Q): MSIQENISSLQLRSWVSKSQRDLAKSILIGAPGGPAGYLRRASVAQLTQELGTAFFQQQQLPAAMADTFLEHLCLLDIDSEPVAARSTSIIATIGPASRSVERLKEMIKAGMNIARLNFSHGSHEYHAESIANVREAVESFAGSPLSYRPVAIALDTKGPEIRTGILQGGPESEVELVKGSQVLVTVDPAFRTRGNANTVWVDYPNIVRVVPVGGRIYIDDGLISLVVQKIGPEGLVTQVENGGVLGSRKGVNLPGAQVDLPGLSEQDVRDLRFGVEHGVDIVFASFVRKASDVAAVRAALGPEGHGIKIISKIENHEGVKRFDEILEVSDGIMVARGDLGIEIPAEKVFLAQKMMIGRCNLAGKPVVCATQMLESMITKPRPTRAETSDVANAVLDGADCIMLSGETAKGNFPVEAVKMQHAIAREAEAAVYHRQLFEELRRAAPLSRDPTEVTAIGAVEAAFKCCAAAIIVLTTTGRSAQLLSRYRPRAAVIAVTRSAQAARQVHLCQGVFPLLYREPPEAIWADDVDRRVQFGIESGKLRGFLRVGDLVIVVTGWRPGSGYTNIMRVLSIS
Description: as §1, §2

PKR(wt) = PKR(wt) (Homo sapiens, UniProt P30613); assay: Luminescence Assay (Kinase Glo Plus), PKR wild type
Sequence of PKR(wt) (P30613 whole entry): as the sequence (P30613 whole entry R510Q) above, with Q510R counted along it
Description: as §1, with “AC50 measurements were obtained by the standard four parameter fit algorithm of ActivityBase XE Runner (max, min, slope and AC50). The AC50 value for a compound is the concentration (μM) at which the activity along the four parameter logistic curve fit is halfway between minimum and maximum activity.” left out

Sequence of PKR(G332S) (P30613 whole entry G332S): as the sequence (P30613 whole entry R510Q) above, with G332S, Q510R counted along it

AC50 (PKR(G332S)) [µM] | AC50 (PKR-R510Q) [µM] | AC50 (PKR(wt)) [µM] | Compound
0.1 to 1 | 1 to 40 | – | O=C([C@H](O)c1cccnc1)N1CC2=C(C1)CN(S(=O)(=O)c1cnc3c(c1)OCCO3)C2 [Compound 6]
1 to 40 | 1 to 40 | 1 to 40 | O=C([C@@H](CO)c1ccccc1)N1CC2=C(C1)CN(S(=O)(=O)c1cnc3c(c1)OCCO3)C2 (single isomer, unassigned) [Compound 2]
